Active and inactive are the calls of the source.
Legend:
[1] = target: Cytochrome P450 3A4 (Homo sapiens, UniProt P08684);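 further: CYP3A4 tested as one member of a cytochrome P450 panel screen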
[2] = Luminescence Cell-Based Dose Retest to Confirm Inhibitors of Cancer Stem Cells. [Related pubchem assays (depositor defined):AID2717, AID2721]; assay type: functional; details: Homo sapiens
[3] = target: Cytochrome P450 2C9 (Homo sapiens, UniProt P11712)
[4] = target: T1, Replicative DNA helicase DnaB (Mycobacterium tuberculosis, UniProt P9WMR3); test: DnaB intein splicing inhibitors, dose response, biochemical, cell-free fluorescence (AID 449749); assay type: functional
T1 sequence (P9WMR3 whole entry): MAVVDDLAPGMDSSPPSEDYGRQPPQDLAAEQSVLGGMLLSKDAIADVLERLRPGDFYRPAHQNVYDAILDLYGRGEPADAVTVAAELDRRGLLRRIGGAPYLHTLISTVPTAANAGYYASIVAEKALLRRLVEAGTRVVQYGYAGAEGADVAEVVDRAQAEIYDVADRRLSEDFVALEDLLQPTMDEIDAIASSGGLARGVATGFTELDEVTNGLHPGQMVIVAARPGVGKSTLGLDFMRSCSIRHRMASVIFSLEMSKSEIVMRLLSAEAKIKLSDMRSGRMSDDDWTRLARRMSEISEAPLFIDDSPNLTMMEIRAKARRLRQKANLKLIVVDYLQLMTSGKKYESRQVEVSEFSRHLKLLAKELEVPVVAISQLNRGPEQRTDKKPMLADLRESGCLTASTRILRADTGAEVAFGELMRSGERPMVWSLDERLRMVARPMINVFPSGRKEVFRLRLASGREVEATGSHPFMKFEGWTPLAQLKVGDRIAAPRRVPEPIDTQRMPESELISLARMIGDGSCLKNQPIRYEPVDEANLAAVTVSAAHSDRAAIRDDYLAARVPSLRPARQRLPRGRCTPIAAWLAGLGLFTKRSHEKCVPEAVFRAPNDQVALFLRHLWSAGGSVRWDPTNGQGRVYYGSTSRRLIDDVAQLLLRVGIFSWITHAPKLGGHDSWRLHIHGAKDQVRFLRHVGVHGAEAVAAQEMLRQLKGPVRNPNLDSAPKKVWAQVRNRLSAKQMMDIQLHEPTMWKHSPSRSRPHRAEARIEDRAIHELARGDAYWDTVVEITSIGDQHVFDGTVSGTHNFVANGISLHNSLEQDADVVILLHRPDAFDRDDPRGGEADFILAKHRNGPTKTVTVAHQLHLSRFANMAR

[5] = target: T2, Coagulation factor XII (Homo sapiens, UniProt P00748); assay type: functional;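 further: activated factor XIIa alpha cleaving a fluorogenic AMC peptide substrate; inhibitor potency from loss of enzyme activity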
T2 sequence (P00748 whole entry): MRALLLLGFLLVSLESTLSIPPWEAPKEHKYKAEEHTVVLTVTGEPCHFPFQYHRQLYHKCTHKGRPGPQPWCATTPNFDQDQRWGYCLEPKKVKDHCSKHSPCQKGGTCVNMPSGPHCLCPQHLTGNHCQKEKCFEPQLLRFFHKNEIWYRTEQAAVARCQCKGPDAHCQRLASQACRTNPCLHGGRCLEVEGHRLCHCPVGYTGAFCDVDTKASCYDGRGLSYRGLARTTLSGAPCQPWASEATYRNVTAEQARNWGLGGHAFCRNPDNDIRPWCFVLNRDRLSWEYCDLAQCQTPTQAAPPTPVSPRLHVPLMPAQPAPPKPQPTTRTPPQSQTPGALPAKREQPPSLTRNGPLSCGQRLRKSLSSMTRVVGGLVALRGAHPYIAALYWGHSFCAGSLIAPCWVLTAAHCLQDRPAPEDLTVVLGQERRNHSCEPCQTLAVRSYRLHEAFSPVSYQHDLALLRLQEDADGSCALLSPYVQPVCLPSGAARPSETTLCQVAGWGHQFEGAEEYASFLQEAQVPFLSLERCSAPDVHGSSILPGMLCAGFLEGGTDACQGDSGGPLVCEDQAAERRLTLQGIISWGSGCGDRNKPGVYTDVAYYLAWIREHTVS

[6] = target: T3, Protein RecA (Mycobacterium tuberculosis, UniProt P9WHJ3); test: Fluorescence Cell-Free Homogeneous Dose Retest to Identify Inhibitors of RecA-Intein Splicing Activity. [Related pubchem assays (depositor defined):AID2097, AID2223, AID489010, AID492950]; assay type: functional
T3 sequence (P9WHJ3 whole entry): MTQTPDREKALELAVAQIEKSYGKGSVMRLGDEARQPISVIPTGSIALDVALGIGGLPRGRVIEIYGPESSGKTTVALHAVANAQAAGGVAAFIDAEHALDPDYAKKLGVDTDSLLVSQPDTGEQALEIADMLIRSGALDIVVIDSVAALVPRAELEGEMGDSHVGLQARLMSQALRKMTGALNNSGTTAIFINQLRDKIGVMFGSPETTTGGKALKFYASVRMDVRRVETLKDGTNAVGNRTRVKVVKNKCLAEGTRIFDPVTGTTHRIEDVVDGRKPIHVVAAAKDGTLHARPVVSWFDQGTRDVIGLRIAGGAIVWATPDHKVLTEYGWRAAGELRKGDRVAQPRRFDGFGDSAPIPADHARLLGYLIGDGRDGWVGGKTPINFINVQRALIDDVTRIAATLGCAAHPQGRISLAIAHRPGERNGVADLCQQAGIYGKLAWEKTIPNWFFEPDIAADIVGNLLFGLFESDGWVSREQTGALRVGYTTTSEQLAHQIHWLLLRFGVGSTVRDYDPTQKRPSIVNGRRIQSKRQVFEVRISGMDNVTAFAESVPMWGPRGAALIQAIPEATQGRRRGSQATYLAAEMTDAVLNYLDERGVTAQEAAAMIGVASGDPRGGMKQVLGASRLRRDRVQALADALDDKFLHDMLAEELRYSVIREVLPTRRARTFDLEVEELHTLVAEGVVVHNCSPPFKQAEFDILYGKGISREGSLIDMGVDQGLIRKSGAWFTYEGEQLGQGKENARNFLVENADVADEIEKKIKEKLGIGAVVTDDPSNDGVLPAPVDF

[7] = cytotoxicity in MIN6 insulinoma cells, dose response, cytotoxicity control, cell-based, mouse insulinoma (AID 2122); assay type: functional;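 further: confirmatory high-throughput counterscreen run to flag cytotoxic compounds; mouse MIN-6 beta cells carrying an insulin promoter eGFP reporter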
[8] = test system: INS1; test: beta cell apoptosis inhibitors, cytokine rescue, dose response, luminescence, retest (AID 449756); assay type: functional, cell-based; details: Rattus norvegicus;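 further: cell death triggered by IL-1 beta plus TNF-alpha plus IFN-gamma mixture; protective hits raise ATP signal compared with cytokine alone wells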
[9] = insulin promoter down-regulators in MIN6 cells, imaging, high-content screening, mouse beta cells (AID 1628); assay type: functional
[10] = test system: Vero; test: Vero cell cytotoxicity, cytotoxicity control for flavivirus capping enzyme inhibitors (AID 588742); assay type: functional; details: Chlorocebus sabaeus
[11] = target: Genome polyprotein (dengue virus type 2, UniProt P29990); test: Dengue-2 NS5 methyltransferase inhibitors, primary screen, biochemical, confirmation dose response (AID 588689); assay type: functional
Sequence of Genome polyprotein (P29990 2492-3391 limits assumed): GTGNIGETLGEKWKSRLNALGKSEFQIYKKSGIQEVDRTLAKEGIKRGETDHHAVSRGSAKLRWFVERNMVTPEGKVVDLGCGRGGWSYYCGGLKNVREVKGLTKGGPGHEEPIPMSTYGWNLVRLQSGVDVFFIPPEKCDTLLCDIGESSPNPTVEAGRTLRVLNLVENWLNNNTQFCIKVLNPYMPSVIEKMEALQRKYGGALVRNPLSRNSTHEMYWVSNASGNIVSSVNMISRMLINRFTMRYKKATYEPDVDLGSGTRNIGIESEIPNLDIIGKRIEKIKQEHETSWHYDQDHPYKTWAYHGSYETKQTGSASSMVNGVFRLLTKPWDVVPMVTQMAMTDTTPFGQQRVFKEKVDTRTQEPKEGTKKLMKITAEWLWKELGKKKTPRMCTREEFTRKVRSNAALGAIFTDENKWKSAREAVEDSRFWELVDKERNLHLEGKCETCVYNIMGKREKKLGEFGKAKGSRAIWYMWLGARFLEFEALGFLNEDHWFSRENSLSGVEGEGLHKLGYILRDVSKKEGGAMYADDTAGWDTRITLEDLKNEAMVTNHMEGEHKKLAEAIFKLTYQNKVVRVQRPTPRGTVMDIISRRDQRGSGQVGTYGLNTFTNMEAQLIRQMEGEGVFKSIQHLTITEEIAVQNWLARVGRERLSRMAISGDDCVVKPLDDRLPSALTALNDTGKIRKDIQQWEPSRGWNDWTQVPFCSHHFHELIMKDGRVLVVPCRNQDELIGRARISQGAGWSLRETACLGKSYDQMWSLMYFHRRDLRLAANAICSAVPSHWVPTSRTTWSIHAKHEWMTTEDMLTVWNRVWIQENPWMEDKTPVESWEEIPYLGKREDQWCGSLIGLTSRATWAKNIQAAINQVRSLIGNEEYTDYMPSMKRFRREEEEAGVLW

[12] = target: T4, Polyadenylate-binding protein 1 (Homo sapiens, UniProt P11940); test: PABP1 MLLE–PAM2 interaction inhibitors, dose response, miRNA deadenylation inhibitor project, biochemical, fluorescence polarization, Cy5-PAM2 peptide, secondary (AID 602260); assay type: functional; details: read-out: IC50_Mean
T4 sequence (P11940 whole entry): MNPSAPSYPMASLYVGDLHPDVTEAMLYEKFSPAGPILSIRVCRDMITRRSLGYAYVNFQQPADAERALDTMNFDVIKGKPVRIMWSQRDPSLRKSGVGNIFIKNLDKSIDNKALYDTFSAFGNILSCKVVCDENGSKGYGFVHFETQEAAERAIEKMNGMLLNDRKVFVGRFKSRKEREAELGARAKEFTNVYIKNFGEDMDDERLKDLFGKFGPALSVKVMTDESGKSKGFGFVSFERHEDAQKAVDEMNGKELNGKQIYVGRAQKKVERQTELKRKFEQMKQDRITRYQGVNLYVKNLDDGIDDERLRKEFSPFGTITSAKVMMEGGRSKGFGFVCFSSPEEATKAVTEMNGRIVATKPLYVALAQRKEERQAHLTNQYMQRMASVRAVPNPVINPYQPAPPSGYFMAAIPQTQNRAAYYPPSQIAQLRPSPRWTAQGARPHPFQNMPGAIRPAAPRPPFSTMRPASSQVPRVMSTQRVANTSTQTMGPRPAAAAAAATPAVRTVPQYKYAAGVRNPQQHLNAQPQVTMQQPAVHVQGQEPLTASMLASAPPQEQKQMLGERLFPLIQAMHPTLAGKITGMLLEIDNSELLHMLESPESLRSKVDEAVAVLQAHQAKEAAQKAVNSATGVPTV

[13] = target: T4, Polyadenylate-binding protein 1; test: PABP1 MLLE–PAM2 binding inhibitor potency, dose response, biochemical, fluorescence polarization, FITC-PAM2 peptide (AID 602259); assay type: functional; details: read-out: IC50_Mean
[14] = target: T5, Cytochrome P450 1A2 (Homo sapiens, UniProt P05177);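 further: PubChem cytochrome P450 panel assay, CYP1A2 panel member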
T5 sequence (P05177 whole entry): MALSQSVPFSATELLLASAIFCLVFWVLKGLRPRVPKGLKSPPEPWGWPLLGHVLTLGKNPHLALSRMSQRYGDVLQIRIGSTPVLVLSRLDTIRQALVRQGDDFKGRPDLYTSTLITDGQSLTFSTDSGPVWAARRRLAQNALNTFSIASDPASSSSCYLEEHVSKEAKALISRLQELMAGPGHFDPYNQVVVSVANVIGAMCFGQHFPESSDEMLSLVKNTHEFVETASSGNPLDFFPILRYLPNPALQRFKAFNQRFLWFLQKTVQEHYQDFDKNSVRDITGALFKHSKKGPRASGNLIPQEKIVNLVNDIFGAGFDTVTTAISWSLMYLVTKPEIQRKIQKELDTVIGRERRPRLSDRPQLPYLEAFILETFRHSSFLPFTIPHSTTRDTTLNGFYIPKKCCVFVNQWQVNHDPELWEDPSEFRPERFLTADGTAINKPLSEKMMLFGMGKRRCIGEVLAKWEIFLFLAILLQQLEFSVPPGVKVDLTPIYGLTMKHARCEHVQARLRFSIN

[15] = target: Cytochrome P450 2D6 (Homo sapiens, UniProt P10635);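 further: CYP2D6 member of a cytochrome P450 panel assay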
Sequence of Cytochrome P450 2D6 (P10635 whole entry): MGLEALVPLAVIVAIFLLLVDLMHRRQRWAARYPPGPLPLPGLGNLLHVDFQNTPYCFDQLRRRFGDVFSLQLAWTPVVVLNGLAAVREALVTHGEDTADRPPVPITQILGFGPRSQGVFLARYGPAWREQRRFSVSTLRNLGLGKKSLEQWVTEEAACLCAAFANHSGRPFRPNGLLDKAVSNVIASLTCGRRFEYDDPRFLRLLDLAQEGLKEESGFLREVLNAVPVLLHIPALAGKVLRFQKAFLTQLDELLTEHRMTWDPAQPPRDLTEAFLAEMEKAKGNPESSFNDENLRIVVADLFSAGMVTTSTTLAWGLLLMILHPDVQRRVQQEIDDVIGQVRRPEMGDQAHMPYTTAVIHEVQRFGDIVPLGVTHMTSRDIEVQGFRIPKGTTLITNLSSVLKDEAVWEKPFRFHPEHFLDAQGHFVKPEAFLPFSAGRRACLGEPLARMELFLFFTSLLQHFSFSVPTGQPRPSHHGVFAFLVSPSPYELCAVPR

[16] = HEp-2 cell cytotoxicity, dose response, cytotoxicity control for RSV inhibitor project, HTS (AID 2410); assay type: functional; details: human respiratory syncytial virus
[17] = target: T6, Apoptotic protease-activating factor 1 (Homo sapiens, UniProt O14727); assay type: functional
T6 sequence (O14727 whole entry): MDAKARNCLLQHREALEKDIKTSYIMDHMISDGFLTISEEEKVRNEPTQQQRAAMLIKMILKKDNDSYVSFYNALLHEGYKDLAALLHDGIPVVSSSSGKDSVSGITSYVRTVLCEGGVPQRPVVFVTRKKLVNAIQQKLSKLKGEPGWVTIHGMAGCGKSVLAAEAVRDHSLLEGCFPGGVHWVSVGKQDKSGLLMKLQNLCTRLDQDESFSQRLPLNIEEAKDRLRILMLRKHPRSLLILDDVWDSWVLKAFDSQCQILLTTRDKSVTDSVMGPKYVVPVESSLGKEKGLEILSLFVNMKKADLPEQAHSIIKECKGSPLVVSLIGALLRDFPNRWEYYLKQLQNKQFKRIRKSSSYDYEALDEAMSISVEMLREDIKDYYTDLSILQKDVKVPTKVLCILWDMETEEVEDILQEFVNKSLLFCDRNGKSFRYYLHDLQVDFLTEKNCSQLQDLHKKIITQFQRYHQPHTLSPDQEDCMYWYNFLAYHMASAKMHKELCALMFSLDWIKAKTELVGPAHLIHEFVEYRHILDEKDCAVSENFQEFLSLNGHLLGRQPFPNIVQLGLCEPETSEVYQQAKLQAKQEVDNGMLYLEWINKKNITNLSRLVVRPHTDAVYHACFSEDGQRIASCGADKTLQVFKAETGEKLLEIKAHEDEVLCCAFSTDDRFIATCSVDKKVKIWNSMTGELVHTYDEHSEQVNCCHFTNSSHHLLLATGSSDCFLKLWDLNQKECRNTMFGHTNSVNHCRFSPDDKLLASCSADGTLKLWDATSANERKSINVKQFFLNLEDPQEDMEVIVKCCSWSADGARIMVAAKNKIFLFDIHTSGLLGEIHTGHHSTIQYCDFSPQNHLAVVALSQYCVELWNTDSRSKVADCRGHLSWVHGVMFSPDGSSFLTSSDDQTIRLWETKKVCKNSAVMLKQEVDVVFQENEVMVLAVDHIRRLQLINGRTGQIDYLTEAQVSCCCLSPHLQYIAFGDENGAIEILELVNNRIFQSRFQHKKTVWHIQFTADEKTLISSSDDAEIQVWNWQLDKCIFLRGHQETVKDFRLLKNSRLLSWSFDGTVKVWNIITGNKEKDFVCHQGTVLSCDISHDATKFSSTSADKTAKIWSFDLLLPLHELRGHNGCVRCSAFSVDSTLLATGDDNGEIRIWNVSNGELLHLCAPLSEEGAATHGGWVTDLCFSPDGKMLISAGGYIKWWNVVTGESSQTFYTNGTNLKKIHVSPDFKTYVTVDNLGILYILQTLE

[18] = THP-1 cell cytotoxicity, dose response, cytotoxicity control for Vif-APOBEC3G degradation inhibitor project, THP-1 cells (AID 1117359); assay type: functional; details: Human immunodeficiency virus 1, THP-1

Sequence of Cytochrome P450 3A4 (P08684 whole entry): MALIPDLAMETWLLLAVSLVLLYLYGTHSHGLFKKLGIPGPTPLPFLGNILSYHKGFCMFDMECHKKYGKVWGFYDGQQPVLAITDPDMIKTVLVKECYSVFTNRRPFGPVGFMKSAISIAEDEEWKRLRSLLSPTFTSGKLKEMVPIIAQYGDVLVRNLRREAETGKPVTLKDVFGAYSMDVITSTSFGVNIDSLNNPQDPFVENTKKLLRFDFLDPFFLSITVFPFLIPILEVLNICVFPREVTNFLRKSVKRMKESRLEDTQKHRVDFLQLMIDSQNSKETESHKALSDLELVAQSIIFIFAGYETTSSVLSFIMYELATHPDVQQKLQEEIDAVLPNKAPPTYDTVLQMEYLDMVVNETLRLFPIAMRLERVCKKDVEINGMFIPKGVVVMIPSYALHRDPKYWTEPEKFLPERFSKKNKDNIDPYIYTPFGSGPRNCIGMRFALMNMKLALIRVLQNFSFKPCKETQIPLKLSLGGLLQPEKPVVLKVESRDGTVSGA
Sequence of Cytochrome P450 2C9 (P11712 whole entry): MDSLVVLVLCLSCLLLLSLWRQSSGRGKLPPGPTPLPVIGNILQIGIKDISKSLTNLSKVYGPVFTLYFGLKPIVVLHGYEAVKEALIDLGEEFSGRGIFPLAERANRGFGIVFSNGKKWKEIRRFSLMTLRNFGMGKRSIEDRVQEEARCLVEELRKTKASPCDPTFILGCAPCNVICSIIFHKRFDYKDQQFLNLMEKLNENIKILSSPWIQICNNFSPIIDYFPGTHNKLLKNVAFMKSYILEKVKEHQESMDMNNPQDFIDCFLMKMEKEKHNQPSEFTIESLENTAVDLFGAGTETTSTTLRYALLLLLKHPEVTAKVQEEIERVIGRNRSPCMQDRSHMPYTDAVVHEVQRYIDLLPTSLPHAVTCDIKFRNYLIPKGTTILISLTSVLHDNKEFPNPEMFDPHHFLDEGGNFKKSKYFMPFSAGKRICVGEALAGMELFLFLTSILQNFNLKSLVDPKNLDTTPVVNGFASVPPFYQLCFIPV

CSc1nc2ccccc2cc1/C=C(\C#N)c1cccc(Cl)c1
AC50 [1]: inconclusive | AC50 [2]: 1.17 µM (active) | AC50 [3]: 39.8 µM (inconclusive)

O=C(COC(=O)C1CC(=O)N(Cc2ccco2)C1)c1ccc(OC(=O)c2ccco2)cc1 (stereo not given)
AC50 [4]: > 380 µM (inactive) | IC50 [5]: 13.3 µM (active) | EC50 [6]: 18 µM (active)

COc1cc(CN2CCN(c3cc(C)ccc3C)CC2)ccc1O
IC50 [7]: 1.4 µM (active) | AC50 [8]: 1.66 µM (active) | IC50 [9]: 2.74 µM (active)

COc1cc(/C=C2\SC(=S)N(NS(=O)(=O)c3ccccc3)C2=O)cc(OC)c1OC
CC50 [10]: > 40 µM (active) | IC50 [11]: 65 µM (active)

Cc1sc2nc3ccc(NCc4ccco4)nn3c(=O)c2c1C
IC50 [12]: > 66 µM (inactive) | IC50 [13]: > 66 µM (inactive) | CC50 [10]: > 40 µM (active) | IC50 [11]: > 100 µM (active)

O[C@@H](c1ccccc1)C1CCN(CCc2ccccc2)CC1
AC50 [14]: 31.6 µM (inconclusive) | AC50 [1]: inconclusive | AC50 [15]: 25.1 µM (inconclusive)

CC(=O)O[C@]1(C(C)=O)CC[C@@H]2[C@@H]3C=C(C)C4=CC(=O)CC[C@@]4(C)[C@H]3CC[C@]21C
AC50 [1]: inconclusive | AC50 [3]: 12.6 µM (inconclusive)

CC(=O)c1cccc(S(=O)(=O)N2CCN(c3nc4cc(C)cc(C)c4cc3C#N)CC2)c1
IC50 [7]: 5.84 µM (active) | IC50 [9]: 3.28 µM (active) | CC50 [16]: 18.4 µM (active)

Cc1ccc(-c2nnc(CSc3nnc(COc4cccc5ccccc45)n3-c3ccccc3)o2)cc1
IC50 [17]: 6.83 µM (active)

CCN1CCN(CC(=O)N2c3ccccc3CC2C)CC1.O=C(O)C(=O)O (stereo not given)
AC50 [1]: inconclusive | AC50 [15]: 17.8 µM (inconclusive)

CCOC(=O)N1CCN(C2=C(NS(=O)(=O)c3ccc(Br)cc3)C(=O)c3ccccc3C2=O)CC1
CC50 [10]: > 40 µM (active)

COc1cc2c(cc1OC)C(=O)C(Br)CC2 (stereo not given)
CC50 [18]: > 40 µM (active) | CC50 [10]: 26.4 µM (active)

NCCS [CYSTEAMINE]
AC50 [1]: inconclusive

Reference: ChEMBL document CHEMBL1201862, “PubChem BioAssay data set” (2004)
